Measurements published in the supplement of paper PMC10307832.

Assays:
Test in all cases: relative viability (nuclei count vs DMSO), 5 days (fraction); higher = more cells survive
NCI-H1793 = tested on: NCI-H1793
How it was run: (§1)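 One day after seeding in 1536-well plates, lung cancer cell lines were dosed by pin tool. Dosing was either single-drug or a fixed anchor-drug dose plus five library-drug doses (not always all listed) in √10 steps. After 5 days, nuclei were stained in one fix-and-stain step and counted on 4× images, and relative viability is the nuclei count of treated wells over that of vehicle wells, given as the median of duplicate plates.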

NCI-H23 = tested on: NCI-H23
How it was run: as §1

HARA = tested on: HARA
How it was run: as §1

LC-2-ad = tested on: LC-2-ad
How it was run: as §1

NCI-H2023 = tested on: NCI-H2023
How it was run: as §1

HCC-78 = tested on: HCC-78
How it was run: as §1

NCI-H2009 = tested on: NCI-H2009
How it was run: as §1

NCI-H2228 = tested on: NCI-H2228
How it was run: as §1

COR-L23 = tested on: COR-L23
How it was run: as §1

HCC-15 = tested on: HCC-15
How it was run: as §1

NCI-H1944 = tested on: NCI-H1944
How it was run: as §1

ChaGo-K-1 = tested on: ChaGo-K-1
How it was run: as §1

A-427 = tested on: A-427
How it was run: as §1

SK-LU-1 = tested on: SK-LU-1
How it was run: as §1

HCC-366 = tested on: HCC-366
How it was run: as §1

NCI-H838 = tested on: NCI-H838
How it was run: as §1

NCI-H2405 = tested on: NCI-H2405
How it was run: as §1

ABC-1 = tested on: ABC-1
How it was run: as §1

EMC-BAC-2 = tested on: EMC-BAC-2
How it was run: as §1

LK-2 = tested on: LK-2
How it was run: as §1

NCI-H1650 = tested on: NCI-H1650
How it was run: as §1

NCI-H1993 = tested on: NCI-H1993
How it was run: as §1

UMC-11 = tested on: UMC-11
How it was run: as §1

NCI-H1734 = tested on: NCI-H1734
How it was run: as §1

**Q.** How did the relative viability (NCI-H1793; first compound 0.01 µM) turn out when `CC(C)Oc1cc(Nc2nc(N[C@@H](C)c3ccc(F)cn3)ncc2Cl)n[nH]1` [AZ23] + O=C(c1cc(Cc2n[nH]c(=O)c3ccccc23)ccc1F)N1CCN(C(=O)C2CC2)CC1 [Olaparib] (partner 8 µM) was run?
**A.** The relative viability was 0.756.

**Q.** What about the relative viability (NCI-H1793; first compound 0.03162 µM) of the same molecule?
**A.** The relative viability was 1.1.

**Q.** And the relative viability (NCI-H1793; first compound 0.3162 µM)?
**A.** The relative viability was 0.85.

**Q.** And the relative viability (NCI-H23; first compound 0.03162 µM)?
**A.** The relative viability was 0.263.

**Q.** And the relative viability (NCI-H23; first compound 0.3162 µM)?
**A.** Its relative viability is 0.394.

**Q.** And the relative viability (HARA; first compound 0.01 µM)?
**A.** Its relative viability is 0.292.

**Q.** And the relative viability (HARA; first compound 0.03162 µM)?
**A.** The relative viability was 0.575.

**Q.** And the relative viability (HARA; first compound 0.3162 µM)?
**A.** The relative viability was 0.969.

**Q.** And the relative viability (LC-2-ad; first compound 0.01 µM)?
**A.** Its relative viability is 0.811.

**Q.** What about the relative viability (LC-2-ad; first compound 0.03162 µM) of the same molecule?
**A.** The relative viability was 0.772.

**Q.** And the relative viability (LC-2-ad; first compound 0.3162 µM)?
**A.** The relative viability was 0.824.

**Q.** What about the relative viability (NCI-H2023; first compound 0.03162 µM) of the same molecule?
**A.** Its relative viability is 0.572.

**Q.** What about the relative viability (NCI-H2023; first compound 0.3162 µM) of the same molecule?
**A.** The relative viability was 0.573.

**Q.** And the relative viability (HCC-78; first compound 0.01 µM)?
**A.** The relative viability was 0.623.

**Q.** And the relative viability (HCC-78; first compound 0.03162 µM)?
**A.** The relative viability was 0.834.

**Q.** What about the relative viability (HCC-78; first compound 0.3162 µM) of the same molecule?
**A.** The relative viability was 0.669.

**Q.** What about the relative viability (NCI-H2009; first compound 0.01 µM) of the same molecule?
**A.** The relative viability was 0.814.

**Q.** What about the relative viability (NCI-H2009; first compound 0.03162 µM) of the same molecule?
**A.** The relative viability was 0.769.

**Q.** And the relative viability (NCI-H2009; first compound 0.3162 µM)?
**A.** The relative viability was 0.79.

**Q.** What about the relative viability (NCI-H2228; first compound 0.01 µM) of the same molecule?
**A.** Its relative viability is 0.53.

**Q.** And the relative viability (NCI-H2228; first compound 0.03162 µM)?
**A.** The relative viability was 0.775.

**Q.** And the relative viability (NCI-H2228; first compound 0.3162 µM)?
**A.** The relative viability was 0.589.

**Q.** What about the relative viability (COR-L23; first compound 0.01 µM) of the same molecule?
**A.** The relative viability was 0.272.

**Q.** What about the relative viability (COR-L23; first compound 0.03162 µM) of the same molecule?
**A.** Its relative viability is 0.365.

**Q.** And the relative viability (COR-L23; first compound 0.3162 µM)?
**A.** The relative viability was 0.34.

**Q.** What about the relative viability (HCC-15; first compound 0.01 µM) of the same molecule?
**A.** Its relative viability is 1.02.

**Q.** And the relative viability (HCC-15; first compound 0.03162 µM)?
**A.** The relative viability was 0.698.

**Q.** And the relative viability (HCC-15; first compound 0.3162 µM)?
**A.** The relative viability was 0.747.

**Q.** And the relative viability (NCI-H1944; first compound 0.01 µM)?
**A.** The relative viability was 0.443.

**Q.** And the relative viability (NCI-H1944; first compound 0.03162 µM)?
**A.** The relative viability was 0.472.

**Q.** And the relative viability (NCI-H1944; first compound 0.3162 µM)?
**A.** The relative viability was 0.448.

**Q.** And the relative viability (ChaGo-K-1; first compound 0.01 µM)?
**A.** The relative viability was 0.519.

**Q.** And the relative viability (ChaGo-K-1; first compound 0.03162 µM)?
**A.** The relative viability was 0.407.

**Q.** What about the relative viability (ChaGo-K-1; first compound 0.3162 µM) of the same molecule?
**A.** Its relative viability is 0.406.

**Q.** What about the relative viability (A-427; first compound 0.01 µM) of the same molecule?
**A.** The relative viability was 0.82.

**Q.** What about the relative viability (A-427; first compound 0.03162 µM) of the same molecule?
**A.** Its relative viability is 0.885.

**Q.** What about the relative viability (A-427; first compound 0.3162 µM) of the same molecule?
**A.** The relative viability was 0.856.

**Q.** What about the relative viability (SK-LU-1; first compound 0.03162 µM) of the same molecule?
**A.** Its relative viability is 0.564.

**Q.** What about the relative viability (SK-LU-1; first compound 0.3162 µM) of the same molecule?
**A.** The relative viability was 0.47.

**Q.** What about the relative viability (HCC-366; first compound 0.01 µM) of the same molecule?
**A.** The relative viability was 0.19.

**Q.** What about the relative viability (HCC-366; first compound 0.03162 µM) of the same molecule?
**A.** Its relative viability is 0.451.

**Q.** And the relative viability (HCC-366; first compound 0.3162 µM)?
**A.** The relative viability was 0.511.

**Q.** What about the relative viability (NCI-H838; first compound 0.01 µM) of the same molecule?
**A.** Its relative viability is 0.905.

**Q.** What about the relative viability (NCI-H838; first compound 0.03162 µM) of the same molecule?
**A.** Its relative viability is 0.964.

**Q.** And the relative viability (NCI-H838; first compound 0.3162 µM)?
**A.** The relative viability was 0.721.

**Q.** What about the relative viability (NCI-H2405; first compound 0.01 µM) of the same molecule?
**A.** Its relative viability is 0.855.

**Q.** And the relative viability (NCI-H2405; first compound 0.03162 µM)?
**A.** The relative viability was 0.903.

**Q.** What about the relative viability (NCI-H2405; first compound 0.3162 µM) of the same molecule?
**A.** The relative viability was 0.831.

**Q.** What about the relative viability (ABC-1; first compound 0.01 µM) of the same molecule?
**A.** Its relative viability is 0.971.

**Q.** And the relative viability (ABC-1; first compound 0.03162 µM)?
**A.** Its relative viability is 0.781.

**Q.** What about the relative viability (ABC-1; first compound 0.3162 µM) of the same molecule?
**A.** The relative viability was 0.673.

**Q.** What about the relative viability (EMC-BAC-2; first compound 0.01 µM) of the same molecule?
**A.** Its relative viability is 0.545.

**Q.** What about the relative viability (EMC-BAC-2; first compound 0.03162 µM) of the same molecule?
**A.** The relative viability was 0.514.

**Q.** What about the relative viability (EMC-BAC-2; first compound 0.3162 µM) of the same molecule?
**A.** Its relative viability is 0.503.

**Q.** What about the relative viability (LK-2; first compound 0.01 µM) of the same molecule?
**A.** The relative viability was 0.717.

**Q.** And the relative viability (LK-2; first compound 0.03162 µM)?
**A.** The relative viability was 0.825.

**Q.** And the relative viability (LK-2; first compound 0.3162 µM)?
**A.** The relative viability was 0.68.

**Q.** And the relative viability (NCI-H1650; first compound 0.01 µM)?
**A.** Its relative viability is 0.685.

**Q.** And the relative viability (NCI-H1650; first compound 0.03162 µM)?
**A.** Its relative viability is 0.97.

**Q.** What about the relative viability (NCI-H1650; first compound 0.3162 µM) of the same molecule?
**A.** The relative viability was 0.876.

**Q.** What about the relative viability (NCI-H1993; first compound 0.01 µM) of the same molecule?
**A.** Its relative viability is 1.08.

**Q.** And the relative viability (NCI-H1993; first compound 0.03162 µM)?
**A.** The relative viability was 1.07.

**Q.** And the relative viability (NCI-H1993; first compound 0.3162 µM)?
**A.** Its relative viability is 1.01.

**Q.** What about the relative viability (UMC-11; first compound 0.01 µM) of the same molecule?
**A.** Its relative viability is 0.392.

**Q.** And the relative viability (UMC-11; first compound 0.03162 µM)?
**A.** The relative viability was 0.422.

**Q.** What about the relative viability (UMC-11; first compound 0.3162 µM) of the same molecule?
**A.** Its relative viability is 0.372.

**Q.** And the relative viability (NCI-H1734; first compound 0.01 µM)?
**A.** The relative viability was 0.628.

**Q.** And the relative viability (NCI-H1734; first compound 0.03162 µM)?
**A.** The relative viability was 0.673.

**Q.** And the relative viability (NCI-H1734; first compound 0.3162 µM)?
**A.** Its relative viability is 0.6.
